Experimental findings from patent publication US20210277015A1, “OGA INHIBITOR COMPOUNDS” (Janssen Pharmaceutica NV, priority 2018, published 2021) are described below.

The target of experiment [1] is T1, recombinant human Meningioma Expressed Antigen 5 (MGEA5), also referred to as O-GlcNAcase (OGA) (Homo sapiens, UniProt O60502).
T1 construct: Full length OGA enzyme was purchased at OriGene (cat #TP322411); purchased OriGene TP322411
T1 sequence (O60502 1-916): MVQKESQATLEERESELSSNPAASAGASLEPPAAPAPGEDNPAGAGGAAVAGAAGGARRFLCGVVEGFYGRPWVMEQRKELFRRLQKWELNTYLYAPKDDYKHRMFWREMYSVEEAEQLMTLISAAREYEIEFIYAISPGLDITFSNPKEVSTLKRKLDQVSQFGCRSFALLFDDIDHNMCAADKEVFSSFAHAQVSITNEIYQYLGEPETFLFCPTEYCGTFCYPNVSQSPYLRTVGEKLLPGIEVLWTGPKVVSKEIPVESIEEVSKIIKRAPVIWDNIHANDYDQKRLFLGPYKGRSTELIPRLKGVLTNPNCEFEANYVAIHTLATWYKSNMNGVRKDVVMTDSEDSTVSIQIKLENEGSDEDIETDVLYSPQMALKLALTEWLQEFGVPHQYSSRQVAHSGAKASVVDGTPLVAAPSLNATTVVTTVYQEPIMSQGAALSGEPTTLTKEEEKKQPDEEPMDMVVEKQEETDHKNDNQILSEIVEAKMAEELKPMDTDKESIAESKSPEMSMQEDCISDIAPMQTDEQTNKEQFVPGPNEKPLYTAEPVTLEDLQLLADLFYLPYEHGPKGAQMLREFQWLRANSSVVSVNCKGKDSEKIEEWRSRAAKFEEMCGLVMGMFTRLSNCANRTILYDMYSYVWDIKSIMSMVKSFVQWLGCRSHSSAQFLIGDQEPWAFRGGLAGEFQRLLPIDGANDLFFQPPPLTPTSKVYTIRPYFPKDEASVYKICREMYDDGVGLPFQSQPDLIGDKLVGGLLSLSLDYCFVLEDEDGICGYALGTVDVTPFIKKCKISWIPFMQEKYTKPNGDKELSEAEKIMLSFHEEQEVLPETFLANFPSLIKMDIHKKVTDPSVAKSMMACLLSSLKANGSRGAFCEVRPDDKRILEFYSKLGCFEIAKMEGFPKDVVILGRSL
Description: OGA biochemical assay (inhibition of FM-GlcNAc hydrolysis, fluorescence). Particulars: FM-GlcNAc substrate; for IC50: 6 h at room temperature, read-out: Enzymatic hOGA, pIC50 (converted); for Emax: read-out: Enzymatic Emax (%). The source says: The assay is based on the inhibition of the hydrolysis of fluorescein mono-β-D-N-Acetyl-Glucosamine (FM-GlcNAc) (Mariappa et al. 2015, Biochem J 470:255) by the recombinant human Meningioma Expressed Antigen 5 (MGEA5), also referred to as O-GlcNAcase (OGA). The hydrolysis FM-GlcNAc (Marker Gene technologies, cat #M1485) results in the formation of β-D-N-glucosamineacetate and fluorescein. The fluorescence of the latter can be measured at excitation wavelength 485 nm and emission wavelength 538 nm. An increase in enzyme activity results in an increase in fluorescence signal. Full length OGA enzyme was purchased at OriGene (cat #TP322411). The enzyme was stored in 25 mM Tris.HCl, pH 7.3, 100 mM glycine, 10% glycerol at −20° C. Thiamet G and GlcNAcStatin were tested as reference compounds (Yuzwa et al. 2008 Nature Chemical Biology 4:483; Yuzwa et al. 2012 Nature Chemical Biology 8:393). The assay was performed in 200 mM Citrate/phosphate buffer supplemented with 0.005% Tween-20. 35.6 g Na2HPO4 2 H2O (Sigma, #C0759) were dissolved in 1 L water to obtain a 200 mM solution. 19.2 g citric acid (Merck, #1.06580) was dissolved in 1 L water to obtain a 100 mM solution. pH of the sodium phosphate solution was adjusted with the citric acid solution to 7.2. The buffer to stop the reaction consists of a 500 mM Carbonate buffer, pH 11.0. 734 mg FM-GlcNAc were dissolved in 5.48 mL DMSO to obtain a 250 mM solution and was stored at −20° C. OGA was used at a 2 nM concentration and FM-GlcNAc at a 100 uM final concentration. Dilutions were prepared in assay buffer.
50 nl of a compound dissolved in DMSO was dispensed on Black Proxiplate™ 384 Plus Assay plates (Perkin Elmer, #6008269) and 3 μl fl-OGA enzyme mix added subsequently. Plates were pre-incubated for 60 min at room temperature and then 2 μl FM-GlcNAc substrate mix added. […] Plates were briefly centrifuged for 1 min at 1000 rpm and incubate at room temperature for 6 h. To stop the reaction 5 μl STOP buffer were added and plates centrifuge again 1 min at 1000 rpm. Fluorescence was quantified in the Thermo Scientific Fluoroskan Ascent or the PerkinElmer EnVision with excitation wavelength 485 nm and emission wavelength 538 nm.
For analysis a best-fit curve is fitted by a minimum sum of squares method. From this an IC50 value and Hill coefficient was obtained. High control (no inhibitor) and low control (saturating concentrations of standard inhibitor) were used to define the minimum and maximum values.

For a further experiment, the target named is T2, OGA (Homo sapiens, UniProt O60502).
T2 construct: endogenous in cells; host or cells: HEK293 cells inducible for P301L mutant human Tau (isoform 2N4R)
T2 sequence (O60502 1-916): T1 sequence (O60502 1-916)
Description: OGA cellular assay (ICC detection of O-GlcNAcylated proteins in HEK293 cells inducible for P301L mutant human Tau). Particulars: for Emax: HEK293, HEK293 cells inducible for P301L mutant human Tau; for EC50: 6 hours incubation, ICC O-GlcNAcylation, read-out: Cellular hOGA, pEC50 (converted). It counts as cell-based. The procedure: HEK293 cells inducible for P301L mutant human Tau (isoform 2N4R) were established at Janssen. Thiamet-G was used for both plate validation (high control) and as reference compound (reference EC50 assay validation). OGA inhibition is evaluated through the immunocytochemical (ICC) detection of O-GlcNAcylated proteins by the use of a monoclonal antibody (CTD110.6; Cell Signaling, #9875) detecting O-GlcNAcylated residues as previously described (Dorfmueller et al. 2010 Chemistry & biology, 17:1250). Inhibition of OGA will result in an increase of O-GlcNAcylated protein levels resulting in an increased signal in the experiment. Cell nuclei are stained with Hoechst to give a cell culture quality control and a rough estimate of immediate compounds toxicity, if any. ICC pictures are imaged with a Perkin Elmer Opera Phenix plate microscope and quantified with the provided software Perkin Elmer Harmony 4.1.
Cells were propagated in DMEM high Glucose (Sigma, #D5796) following standard procedures. 2 days before the cell assay cells are split, counted and seeded in Poly-D-Lysine (PDL) coated 96-wells (Greiner, #655946) plate at a cell density of 12,000 cells per cm^2 (4,000 cells per well) in 100 μl of Assay Medium (Low Glucose medium is used to reduce basal levels of GlcNAcylation) (Park et al. 2014 The Journal of biological chemistry 289:13519). At the day of compound test medium from assay plates was removed and replenished with 90 μl of fresh Assay Medium. 10 μl of compounds at a 10 fold final concentration were added to the wells. Plates were centrifuged shortly before incubation in the cell incubator for 6 hours. DMSO concentration was set to 0.2%. Medium is discarded by applying vacuum. For staining of cells medium was removed and cells washed once with 100 μl D-PBS (Sigma, #D8537). From next step onwards unless other stated assay volume was always 50 μl and incubation was performed without agitation and at room temperature. Cells were fixed in 50 μl of a 4% paraformaldehyde (PFA, Alpha aesar, #043368) PBS solution for 15 minutes at room temperature. […] Before analysis samples were washed 2 times manually for 5 minutes in ICC base buffer.
Imaging is performed using Perkin Elmer Phenix Opera using a water 20× objective and recording 9 fields per well. Intensity readout at 488 nm is used as a measure of O-GlcNAcylation level of total proteins in wells. To assess potential toxicity of compounds nuclei were counted using the Hoechst staining. IC50-values are calculated using parametric non-linear regression model fitting. As a maximum inhibition Thiamet G at a 200 uM concentration is present on each plate. In addition, a concentration response of Thiamet G is calculated on each plate.

Setting [2] is: maximum defined by Thiamet G at 200 uM.
[3] abbreviates: HEK293 cells inducible for P301L mutant human Tau.

Where only a bound is given, the exact number is not on record here.

What is called Emax is the size of the effect at its maximum, as opposed to the concentration needed. On to `Cc1cc(C[C@@H]2CCN(C(C)c3nc4c(cc3F)OCCO4)C2)cc(C)n1` (mixture of isomers) [Product 79], for which the IC50 in experiment [1] was 7.94 nM. The Emax was 98% in experiment [1] (maximal effect) and 85% on OGA (setting [2]). For the same compound, the EC50 at OGA (setting [3]) was 100 nM.
`Cc1cc(C[C@H]2CCN(C(C)c3cnc4c(c3)OCCN4)C2)cc(C)n1` (mixture of isomers) [Product 80]: the IC50 in experiment [1] is 39.8 nM. The Emax came to 101% in experiment [1] (maximal effect) and 71% at OGA (setting [2]). Also, the EC50 on OGA (setting [3]) was 398 nM.
Consider `COc1cc(C[C@H]2CCN(C(C)c3nc4c(cc3F)CCO4)C2)cc(C)n1` (mixture of isomers) [Product 83], for which, in experiment [1], the IC50 was 5.01 nM. Also, the values for the Emax (in experiment [1] (maximal effect); at OGA (setting [2])) were 102% and 89%, respectively. Moreover, at OGA (setting [3]), the EC50 is 31.6 nM.
For `COc1cc(C[C@H]2CCN(C(C)c3ccc4c(n3)OCCC4)C2)cc(C)n1` (mixture of isomers) [Product 86], in that order: 158 nM, 101%, 50% and 741 nM.
In the same order, the values of `COc1cc(C[C@@H]2CCN(C(C)c3nc4c(cc3F)OCCO4)C2)cc(C)n1` (mixture of isomers) [Product 90] are 12.6 nM, 101%, 90% and 126 nM.
For `Cc1cc(CO[C@@H]2CCN(C(C)c3ccc4c(n3)OCCO4)C2)cc(C)n1` (mixture of isomers) [Product 115], in experiment [1], the IC50 is 631 nM. Also, the Emax in experiment [1] (maximal effect) worked out at 94%; on OGA (setting [2]) it was 9%. For the same compound, the EC50 at OGA (setting [3]) is greater than 1000 nM.
For `Cc1cc(C[C@@H]2CCN(C(C)c3cnc4c(c3)OCCO4)C2)cc(C)n1` (mixture of isomers) [Product 116], in that order: 158 nM, 97%, 20% and greater than 1000 nM.
For `Cc1cc(C[C@@H]2CCN(C(C)c3cc4c(cc3F)NCCO4)C2)cc(C)n1` (mixture of isomers) [Product 117], in that order: 15.8 nM, 99%, 60% and 316 nM.
For the compound `Cc1cc(C[C@@H]2CCN(C(C)c3cnc4c(c3)OCCN4)C2)cc(C)n1` (mixture of isomers) [Product 118], in experiment [1], the IC50 was 31.6 nM. For the same compound, the figures for the maximal effect (Emax) (in experiment [1] (maximal effect); on OGA (setting [2])) were 100% and 49%, respectively. Besides, the EC50 on OGA (setting [3]) was 631 nM.
For `Cc1cc(OC[C@H]2CCN(C(C)c3nc4c(cc3F)OCCO4)C2)cc(C)n1` (mixture of isomers) [Product 119], in that order: 100 nM, 100%, 59% and 631 nM.
In the same order, the values of `Cc1cc(C[C@H]2CN(C(C)c3ccc4c(n3)OCCO4)C[C@@H]2C)cc(C)n1` (mixture of isomers) [Product 60] are 79.4 nM, 99%, 44% and greater than 1000 nM.
With `Cc1cc(C[C@H]2CN(C(C)c3ccc4c(n3)OCCO4)C[C@@H]2C)cc(C)n1` (mixture of isomers) [Product 61], the IC50 in experiment [1] was 126 nM. Moreover, the “Enzymatic Emax (%)” value in experiment [1] (maximal effect) came to 97%. Also, on OGA (setting [3]), the EC50 is 794 nM. The “Cellular Emax (%)” value at OGA (HEK293 cells inducible for P301L mutant human Tau, maximum defined by Thiamet G at 200 uM) is on record as 56%.
Consider `Cc1cc(O[C@@H]2CCN(C(C)c3ccc4c(n3)OCCO4)C2)cc(C)n1` (mixture of isomers) [Product 73], for which the IC50 in experiment [1] was 79.4 nM. Also, the Emax in experiment [1] (maximal effect) stood at 99%; at OGA (setting [2]), 33%. The EC50 on OGA (setting [3]) is greater than 1000 nM.
For `COc1cc(C[C@H]2CCN([C@@H](C)c3cc4c(cc3F)NCCO4)C2)cc(C)n1` (racemic) [Product 82], in that order: 10 nM, 101%, 81% and 251 nM.
For the compound `Cc1cc(C[C@@H]2CCN([C@H](C)c3cc4c(cc3F)OCCO4)C2)cc(C)n1` [Product 44], in experiment [1], the IC50 is 251 nM. The Emax in experiment [1] (maximal effect) amounted to 99%.
In the same order, the values of `Cc1cc(OC[C@@H]2CCN(C(C)c3ccc4c(n3)OCCO4)C2)cc(C)n1` (stereo partly shown) [Product 46] are 251 nM and 97%.
For `COc1cc(O[C@H]2CCN(C(C)c3ccc4c(n3)OCCO4)C2)cc(C)n1` (stereo partly shown) [Product 63], in that order: 1000 nM and 95%.
Turning to `Cc1cc(OCC2(C)CCN(C(C)c3ccc4c(n3)OCCO4)C2)cc(C)n1` (stereo not shown) [Product 77], the IC50 in experiment [1] is 794 nM. In experiment [1] (maximal effect), the Emax came to 94%.
